Assay [1] relates to Mus musculus. In words: Concentration required toTRH reduced mean latencies mimetics in mice after p.o. administration using the Morris water maze test; 0.003-3. It counts as functional, organism-based.
Assay [2] has as its system Mus musculus. In words: Concentration required toTRH reduced mean latencies mimetics in mice after i.p. administration using the Morris water maze test; 0.003-3. The format is functional, organism-based.

Regarding `NC(=O)C[C@@H]1C[C@H](Cc2c[nH]cn2)C[C@H](C[C@@H]2CCC(=O)N2Cc2ccccc2)C1`, the Concentration in the assay on Mus musculus [1] and in the assay with Mus musculus [2] was 0.003 mg/kg in each case.

These data come from ChEMBL document CHEMBL1126848, “Concepts and progress in the development of peptide mimetics” (J Med Chem, 1993).
